For 1 compound, Platelet aggregation rate results are on record in patent USRE49050E1, “Traditional Chinese medicine composition, and preparation and application thereof” (Tasly Pharmaceutical Group Co., Ltd., priority 2013, dated 2022).

What all share (assay type): in vivo
Assay [1] concerns ADP-induced platelet aggregation. Kind of assay: Platelet aggregation rate trial in rabbits, ADP-induced. Particulars: ADP 3 μg/ml; dose 60 mg/kg intragastric once a day for 7 days; n = 8. How it is done:
(§1) The rabbits were randomly grouped into 4 groups: the model group was given with distilled water, the aspirin group ([…]), Extract A groups of low dose and high dose at 42 and 84 mg/kg (respectively 1 2 times of clinic equivalent dosage), intragastrically administrated, once a day for 7 consecutive days. The volume of medicine administrated was 1 ml/kg body weight. 60 min after intragastric administration on 7th day, the animals were anesthetized locally, blooded through carotid artery, anticoagulated with sodium citrate (3.8%) 1:9 and centrifugated at 1000 r/min for 10 min. Platelet-rich plasma (PRP) was taken and the remain centrifugated at 3000 r/min to take platelet-poor plasma (PPP. Aggregation was induced by ADP (final concentration 3 μg/ml), AA (final concentration 80 μg/ml) and collagen ([…]). […] platelet aggregation & coagulation factor analyzer was used to measure the maximum platelet aggregation rate and to calculate inhibition rate according to following formula. [formula] Results

The subject of assay [2] is collagen-induced platelet aggregation. Put plainly: Platelet aggregation rate trial in rabbits, collagen-induced. The conditions noted are these: dose 60 mg/kg intragastric once a day for 7 days, n = 8. How it is done: as §1
For assay [3], the system named is AA-induced platelet aggregation. Kind of assay: Platelet aggregation rate trial in rabbits, AA-induced. Particulars: AA 80 μg/ml; dose 60 mg/kg intragastric once a day for 7 days; n = 8. How it is done:
as §1

Take `CC(=O)Oc1ccccc1C(=O)O` [Aspirin]: the Platelet aggregation rate is 18.96 ± 4.11 % in assay [1], 6.23 ± 2.41 % in assay [2] and 6.13 ± 2.03 % in assay [3].
